Data from patent publication US20110306608A1, “COMPOSITIONS AND METHODS FOR TREATING VASCULAR, AUTOIMMUNE AND INFLAMMATORY DISEASES” (priority 2005, published 2011).

How the values were obtained:
[1] = Serum mycophenolic acid level by commercial assay in mice fed MMF in chow; assay type: in vivo, mouse
Excerpt: No MPA was detected in the serum of control mice (data not shown).

[2] = system: endothelial nitric oxide synthase (eNOS) expression; details: in vitro, cholesterol clamped conditions; cited from earlier work

average serum mycophenolic acid (MPA) level ([1]; high-dose group (MMF 100 mg/kg/day in high-fat chow)) | average serum mycophenolic acid (MPA) level ([1]; low-dose group (MMF 15 mg/kg/day in high-fat chow)) | SMILES | upregulation of eNOS expression [2]
3.65 ± 0.3 mg/L | 1.16 ± 0.09 mg/L | COc1c(C)c2c(c(O)c1C/C=C(\C)CCC(=O)O)C(=O)OC2 [MPA, mycophenolic acid] | 
 |  | CC[C@H](C)C(=O)O[C@H]1C[C@@H](C)C=C2C=C[C@H](C)[C@H](CC[C@@H]3C[C@@H](O)CC(=O)O3)[C@H]21 [lovastatin] | almost fourfold
